Laboratory results as given in ChEMBL document CHEMBL1139861, “Novel series of potent, nonsteroidal, selective androgen receptor modulators based on 7H-[1,4]oxazino[3,2-g]quinolin-7-ones” (J Med Chem, 2007).

Legend:
[1] = molecular target: T1, Androgen receptor (Homo sapiens, UniProt P10275)
T1 sequence (P10275 whole entry): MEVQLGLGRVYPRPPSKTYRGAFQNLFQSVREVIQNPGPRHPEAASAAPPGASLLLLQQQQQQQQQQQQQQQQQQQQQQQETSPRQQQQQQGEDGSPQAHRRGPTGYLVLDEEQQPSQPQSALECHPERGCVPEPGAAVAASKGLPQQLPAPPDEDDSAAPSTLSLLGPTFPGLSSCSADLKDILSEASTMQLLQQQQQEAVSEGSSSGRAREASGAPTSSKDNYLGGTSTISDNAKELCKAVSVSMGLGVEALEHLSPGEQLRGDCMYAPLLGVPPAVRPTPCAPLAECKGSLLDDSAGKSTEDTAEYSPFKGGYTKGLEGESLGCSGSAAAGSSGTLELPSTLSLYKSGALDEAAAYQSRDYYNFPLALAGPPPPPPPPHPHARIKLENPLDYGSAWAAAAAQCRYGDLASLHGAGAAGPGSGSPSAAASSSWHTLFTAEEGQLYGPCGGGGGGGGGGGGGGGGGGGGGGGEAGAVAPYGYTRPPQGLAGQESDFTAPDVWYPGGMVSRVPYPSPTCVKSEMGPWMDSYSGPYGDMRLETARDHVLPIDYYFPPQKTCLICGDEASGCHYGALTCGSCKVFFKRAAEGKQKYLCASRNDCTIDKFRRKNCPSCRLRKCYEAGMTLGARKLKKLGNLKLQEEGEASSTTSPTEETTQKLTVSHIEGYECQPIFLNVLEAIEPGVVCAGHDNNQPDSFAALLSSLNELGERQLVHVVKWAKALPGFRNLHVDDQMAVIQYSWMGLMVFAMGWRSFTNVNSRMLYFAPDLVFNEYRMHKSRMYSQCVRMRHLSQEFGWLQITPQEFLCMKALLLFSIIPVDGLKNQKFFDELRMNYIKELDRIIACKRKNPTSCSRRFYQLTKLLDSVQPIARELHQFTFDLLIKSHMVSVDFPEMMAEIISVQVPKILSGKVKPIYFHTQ
Description: Agonist activity at human androgen receptor expressed in CV1 cells by transcriptional activation assay

[2] = molecular target: T1, Androgen receptor; experiment: biochemical
Description: Displacement of [3H]DHT from human AR expressed in MDA-MB-453 cells

[3] = molecular target: T1, Androgen receptor; remark: listed apart in the source
Description: Antagonist activity at human androgen receptor expressed in CV1 cells by transcriptional activation assay

[4] = molecular target: T2, Glucocorticoid receptor (Homo sapiens, UniProt P04150); experiment: Displacement of radiolabeled Dexamethasone from human GR
T2 sequence (P04150 whole entry): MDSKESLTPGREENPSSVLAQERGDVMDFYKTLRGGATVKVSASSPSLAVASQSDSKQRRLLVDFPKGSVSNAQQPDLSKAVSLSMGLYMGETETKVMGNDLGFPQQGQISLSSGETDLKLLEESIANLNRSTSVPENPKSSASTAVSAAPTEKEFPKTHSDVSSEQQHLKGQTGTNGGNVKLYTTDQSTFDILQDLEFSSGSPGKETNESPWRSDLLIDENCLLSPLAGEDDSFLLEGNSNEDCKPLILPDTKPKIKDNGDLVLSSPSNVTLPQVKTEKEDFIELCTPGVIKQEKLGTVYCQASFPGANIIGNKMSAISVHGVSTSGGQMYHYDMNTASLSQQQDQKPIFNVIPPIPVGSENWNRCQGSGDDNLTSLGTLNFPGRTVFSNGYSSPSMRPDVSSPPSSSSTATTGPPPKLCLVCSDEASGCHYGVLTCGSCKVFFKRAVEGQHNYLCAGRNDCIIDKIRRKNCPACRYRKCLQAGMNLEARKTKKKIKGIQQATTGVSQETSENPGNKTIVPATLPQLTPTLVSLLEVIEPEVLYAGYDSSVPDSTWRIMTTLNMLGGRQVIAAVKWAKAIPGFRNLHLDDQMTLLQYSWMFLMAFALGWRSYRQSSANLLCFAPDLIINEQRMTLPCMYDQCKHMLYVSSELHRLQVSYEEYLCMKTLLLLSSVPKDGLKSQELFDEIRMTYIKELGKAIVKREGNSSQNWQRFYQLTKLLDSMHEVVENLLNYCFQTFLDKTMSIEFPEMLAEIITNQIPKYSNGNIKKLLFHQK

[5] = molecular target: T3, Progesterone receptor (Homo sapiens, UniProt P06401)
T3 sequence (P06401 whole entry): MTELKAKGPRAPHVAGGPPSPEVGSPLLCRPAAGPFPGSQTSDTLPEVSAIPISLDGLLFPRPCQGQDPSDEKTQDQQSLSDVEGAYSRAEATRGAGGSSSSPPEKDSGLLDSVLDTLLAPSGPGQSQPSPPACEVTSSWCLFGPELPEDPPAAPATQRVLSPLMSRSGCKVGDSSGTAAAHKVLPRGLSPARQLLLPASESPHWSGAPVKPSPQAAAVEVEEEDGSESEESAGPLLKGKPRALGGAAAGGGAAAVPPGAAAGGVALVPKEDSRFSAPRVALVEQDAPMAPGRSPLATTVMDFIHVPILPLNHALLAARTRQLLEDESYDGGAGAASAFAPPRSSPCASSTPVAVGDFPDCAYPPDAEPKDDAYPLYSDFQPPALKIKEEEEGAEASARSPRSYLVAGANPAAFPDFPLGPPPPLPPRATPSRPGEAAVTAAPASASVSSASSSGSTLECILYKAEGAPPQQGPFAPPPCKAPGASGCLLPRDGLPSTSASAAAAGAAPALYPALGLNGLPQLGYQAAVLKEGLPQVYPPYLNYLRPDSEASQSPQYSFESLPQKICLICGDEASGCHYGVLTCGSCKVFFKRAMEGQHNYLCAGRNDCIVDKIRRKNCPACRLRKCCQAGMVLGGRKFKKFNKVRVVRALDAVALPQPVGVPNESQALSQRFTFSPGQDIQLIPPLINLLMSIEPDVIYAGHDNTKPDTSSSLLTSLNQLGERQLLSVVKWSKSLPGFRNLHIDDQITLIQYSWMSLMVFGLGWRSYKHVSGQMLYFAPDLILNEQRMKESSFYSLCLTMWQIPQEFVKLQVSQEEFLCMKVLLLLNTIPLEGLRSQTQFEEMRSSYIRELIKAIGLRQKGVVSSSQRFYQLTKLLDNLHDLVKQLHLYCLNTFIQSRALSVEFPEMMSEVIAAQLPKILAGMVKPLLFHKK
Description: Displacement of [3H]progesterone from human PRA

[6] = molecular target: T4, Mineralocorticoid receptor (Homo sapiens, UniProt P08235)
T4 sequence (P08235 whole entry): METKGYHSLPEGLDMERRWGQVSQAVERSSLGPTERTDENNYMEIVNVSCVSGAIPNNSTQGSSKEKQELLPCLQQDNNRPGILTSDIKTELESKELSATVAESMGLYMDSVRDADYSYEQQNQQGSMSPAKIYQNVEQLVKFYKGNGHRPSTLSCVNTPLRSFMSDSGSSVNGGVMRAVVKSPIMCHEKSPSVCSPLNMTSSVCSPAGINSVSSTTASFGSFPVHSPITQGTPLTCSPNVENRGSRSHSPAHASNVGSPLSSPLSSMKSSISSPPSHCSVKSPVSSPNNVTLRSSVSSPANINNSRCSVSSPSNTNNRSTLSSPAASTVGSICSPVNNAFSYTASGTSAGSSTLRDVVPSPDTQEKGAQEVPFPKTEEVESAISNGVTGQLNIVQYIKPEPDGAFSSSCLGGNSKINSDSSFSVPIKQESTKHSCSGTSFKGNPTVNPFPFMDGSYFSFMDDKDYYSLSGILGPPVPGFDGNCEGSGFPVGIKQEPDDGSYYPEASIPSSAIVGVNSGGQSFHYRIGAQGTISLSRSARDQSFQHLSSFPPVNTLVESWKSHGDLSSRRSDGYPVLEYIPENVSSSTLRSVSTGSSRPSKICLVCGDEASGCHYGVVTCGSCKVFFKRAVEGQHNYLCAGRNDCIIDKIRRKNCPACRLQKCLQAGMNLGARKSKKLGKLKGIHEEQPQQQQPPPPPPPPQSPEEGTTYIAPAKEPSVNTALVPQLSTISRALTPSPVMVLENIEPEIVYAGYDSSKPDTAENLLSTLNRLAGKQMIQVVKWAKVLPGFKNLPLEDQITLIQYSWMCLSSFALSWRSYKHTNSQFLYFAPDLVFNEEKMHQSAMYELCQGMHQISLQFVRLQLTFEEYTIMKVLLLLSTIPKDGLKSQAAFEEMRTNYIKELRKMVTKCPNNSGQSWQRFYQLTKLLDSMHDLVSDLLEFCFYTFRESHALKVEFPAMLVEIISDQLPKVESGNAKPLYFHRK
Description: Displacement of radiolabeled aldosterone from human MR

[7] = species: Rattus norvegicus; details: dose 100 mg/kg; route oral
[8] = species: Rattus norvegicus; details: dose 100 mg/kg; route oral; remark: listed apart in the source

| Structure (SMILES) | EC50 [1] | Ki [2] | IC50 [3] | further results |
| --- | --- | --- | --- | --- |
| CCC1COc2cc3[nH]c(=O)cc(C(F)(F)F)c3cc2N1CC (racemic) | 3.9 nM | 5.6 nM | – | – |
| CC1COc2cc3[nH]c(=O)cc(C(F)(F)F)c3cc2N1CC1CC1 (racemic) | 1.9 nM | 4 nM | – | – |
| CCN1c2cc3c(C(F)(F)F)cc(=O)[nH]c3cc2OCC1C (racemic) | 10 nM | 4.2 nM | – | – |
| O=c1cc(C(F)(F)F)c2cc3c(cc2[nH]1)OCCN3 | > 10000 nM | > 1000 nM | 296 nM | – |
| CC1CN(CC(F)(F)F)c2cc3c(C(F)(F)F)cc(=O)[nH]c3cc2O1 (racemic) | – | – | – | Ki [4]: > 10000 nM; Ki [5]: 7000 nM; Ki [6]: > 10000 nM |
| O=c1cc(C(F)(F)F)c2cc3c(cc2[nH]1)OCC1CCCCN31 (racemic) | 14 nM | 16 nM | – | Ki [4]: > 10000 nM; Ki [5]: > 10000 nM |
| CC(C)CN1CCOc2cc3[nH]c(=O)cc(C(F)(F)F)c3cc21 | 3.2 nM | 17 nM | – | – |
| CCC1COc2cc3[nH]c(=O)cc(C(F)(F)F)c3cc2N1CC1CC1 (racemic) | 2.3 nM | 23 nM | – | Ki [4]: > 10000 nM; Ki [5]: 5400 nM |
| O=c1cc(C(F)(F)F)c2cc3c(cc2[nH]1)OCCN3Cc1ccccc1 | > 10000 nM | 206 nM | 224 nM | – |
| CCC1CN(CC(F)(F)F)c2cc3c(C(F)(F)F)cc(=O)[nH]c3cc2O1 (racemic) | 15 nM | 30 nM | > 10000 nM | – |
| CCC1CN(C)c2cc3c(C(F)(F)F)cc(=O)[nH]c3cc2O1 (racemic) | 52 nM | 58 nM | 67 nM | – |
| O=c1cc(C(F)(F)F)c2cc3c(cc2[nH]1)OC[C@H]1CCCN31 | 26 nM | 27 nM | – | – |
| CCN1CCOc2cc3[nH]c(=O)cc(C(F)(F)F)c3cc21 | – | – | > 10000 nM | Ki [4]: 8100 nM; Ki [5]: 5200 nM; Ki [6]: > 10000 nM |
| CCC1CN(CC)c2cc3c(C(F)(F)F)cc(=O)[nH]c3cc2O1 (racemic) | 31 nM | 34 nM | > 10000 nM | – |
| O=c1cc(C(F)(F)F)c2cc3c(cc2[nH]1)OCCN3CC(F)(F)F | – | – | > 10000 nM | Ki [4]: 9200 nM; Ki [5]: 5300 nM; Ki [6]: > 10000 nM |
| CC(C)[C@@H]1COc2cc3[nH]c(=O)cc(C(F)(F)F)c3cc2N1CC(F)(F)F | 5.9 nM | 51 nM | – | – |
| CC1COc2cc3[nH]c(=O)cc(C(F)(F)F)c3cc2N1 (racemic) | 133 nM | 113 nM | – | – |
| CN1CCOc2cc3[nH]c(=O)cc(C(F)(F)F)c3cc21 | – | – | > 10000 nM | – |
| CC(C)(C)N1CCOc2cc3[nH]c(=O)cc(C(F)(F)F)c3cc21 | 7.8 nM | 48 nM | > 10000 nM | – |
| CC(C)C[C@@H]1COc2cc3[nH]c(=O)cc(C(F)(F)F)c3cc2N1CC(F)(F)F | 27 nM | 109 nM | – | – |
| CCCN1CCOc2cc3[nH]c(=O)cc(C(F)(F)F)c3cc21 | – | – | > 10000 nM | – |
| CC1CN(CC(F)(F)F)c2cc3c(C(F)(F)F)cc(=O)[nH]c3cc2O1 (stereo in doubt; (-)-10h) | – | – | > 10000 nM | – |
| O=c1cc(C(F)(F)F)c2cc3c(cc2[nH]1)OCCN3CC1CC1 | – | – | – | Ki [4]: 8800 nM; Ki [5]: 2000 nM; Ki [6]: > 10000 nM |
| CC1CN(C)c2cc3c(C(F)(F)F)cc(=O)[nH]c3cc2O1 (racemic) | 47 nM | 33 nM | – | – |
| C[C@]1(O)CC[C@H]2[C@@H]3CCC4=CC(=O)CC[C@]4(C)[C@@]3(F)[C@@H](O)C[C@@]21C [FLUOXYMESTERONE] | – | – | – | Efficacy [7]: 79%; Efficacy [8]: 129% |
